# Values quoted from earlier work in paper PMC12839115, “2-Arylbenzofurans as Selective Cholinesterase Inhibitors: Design, Synthesis, and Evaluation as Alzheimer’s Disease Agents” (Biomolecules, 2026).
# Molecular target: T1, BChE (EC 3.1.1.8) from equine serum (Equus caballus, UniProt P81908)
# T1 construct: BChE (EC 3.1.1.8) from equine serum were employed; from tissue; host or cells: equine serum
# T1 sequence (P81908 whole entry): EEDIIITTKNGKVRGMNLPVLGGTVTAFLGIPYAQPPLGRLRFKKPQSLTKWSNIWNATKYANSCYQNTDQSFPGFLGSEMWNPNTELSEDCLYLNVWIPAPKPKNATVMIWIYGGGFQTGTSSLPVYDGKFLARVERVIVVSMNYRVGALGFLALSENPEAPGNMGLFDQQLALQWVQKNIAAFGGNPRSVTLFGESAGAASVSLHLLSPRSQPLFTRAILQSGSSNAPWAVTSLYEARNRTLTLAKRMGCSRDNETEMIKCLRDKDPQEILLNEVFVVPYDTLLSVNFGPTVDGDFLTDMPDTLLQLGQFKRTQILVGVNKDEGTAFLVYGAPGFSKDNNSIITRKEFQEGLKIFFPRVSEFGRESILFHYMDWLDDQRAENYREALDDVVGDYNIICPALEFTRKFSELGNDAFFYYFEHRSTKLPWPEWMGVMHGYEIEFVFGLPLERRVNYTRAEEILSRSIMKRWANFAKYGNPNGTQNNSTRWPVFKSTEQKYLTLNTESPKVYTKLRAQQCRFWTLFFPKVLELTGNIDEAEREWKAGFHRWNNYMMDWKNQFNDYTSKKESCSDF
row,Structure (SMILES),IC50 [µM]
1,Oc1cccc(-c2cc3cccc(Cl)c3o2)c1 [C00004],13.4 ± 2.57
2,Oc1cccc(-c2cc3cccc(Br)c3o2)c1 [C00010],7.96 ± 0.28
